Molecular target: human NAMPT enzyme (His-hNAMPT) (Homo sapiens (Human), UniProt P43490)
Assay: NAMPT enzymatic inhibition assay (fluorescence, NADH product)
Assay type: biochemical
Settings: [BPS]; read-out: NAMPT IC50 (μM) [BPS]

human NAMPT enzyme (His-hNAMPT), sequence (P43490 whole entry): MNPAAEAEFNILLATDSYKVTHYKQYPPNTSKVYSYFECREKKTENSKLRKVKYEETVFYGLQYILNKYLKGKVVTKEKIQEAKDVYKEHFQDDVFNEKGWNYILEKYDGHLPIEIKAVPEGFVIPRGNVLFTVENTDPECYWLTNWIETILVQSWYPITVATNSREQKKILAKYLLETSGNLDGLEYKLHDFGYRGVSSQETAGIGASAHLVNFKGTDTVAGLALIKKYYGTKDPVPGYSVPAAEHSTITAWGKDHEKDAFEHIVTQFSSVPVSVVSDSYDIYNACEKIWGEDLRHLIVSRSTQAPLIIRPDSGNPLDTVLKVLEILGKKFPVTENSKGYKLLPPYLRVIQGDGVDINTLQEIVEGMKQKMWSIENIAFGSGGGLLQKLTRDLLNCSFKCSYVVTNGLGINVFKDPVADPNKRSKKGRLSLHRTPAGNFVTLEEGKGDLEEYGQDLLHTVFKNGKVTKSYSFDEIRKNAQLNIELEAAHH

`Nc1ccc(/C=C/C(=O)NCC[C@@H]2[C@H]3CN(C(=O)c4cccc(OC(F)F)c4)C[C@@H]23)cn1` [Example 91, (E)-3-(6-aminopyridin-3-yl)-N-(2-((1R,5S,6s)-3-(3-(difluoromethoxy)benzoyl)-3-azabicyclo[3.1.0]hexan-6-yl)ethyl)acrylamide] and `Nc1ccc(/C=C/C(=O)NCC[C@@H]2[C@H]3CN(S(=O)(=O)c4ccccc4)C[C@@H]23)cn1` [Example 45, (E)-3-(6-aminopyrdiin-3-yl)-N-(2-((1R,5S,6s)-3-(phenylsulfonyl)-3-azabicyclo[3.1.0]hexan-6-yl)ethyl)acrylamide] fall in the same range of IC50: 0.01 to 0.49 µM for the first, 0.01 to 0.49 µM for the second.

`CC1(OC(=O)N2C[C@@H]3[C@@H](CCNC(=O)/C=C/c4ccc(N)nc4)[C@@H]3C2)COC1` [Example 24, (1R,5S,6s)-3-methyloxetan-3-yl 6-(2-((E)-3-(6-aminopyridin-3-yl)acrylamido)ethyl)-3-azabicyclo[3.1.0]hexane-3-carboxylate] and `CC(C)(C)CNC(=O)N1C[C@@H]2[C@@H](CCNC(=O)/C=C/c3ccc(N)nc3)[C@@H]2C1` [Example 96, (1R,5S,6s)-6-(2-((E)-3-(6-aminopyridin-3-yl)acrylamido)ethyl)-N-neopentyl-3-azabicyclo[3.1.0]hexane-3-carboxamide] fall in the same range of IC50: 0.01 to 0.49 µM for the first, 0.01 to 0.49 µM for the second.

First: Nc1ccc(/C=C/C(=O)NCC[C@@H]2[C@H]3CN(S(=O)(=O)C4CCCC4)C[C@@H]23)cn1 [Example 48, (E)-3-(6-aminopyridin-3-yl)-N-(-2 ((1R,5S,6s)-3-(cyclopentylsulfonyl)-3-azabicyclo[3.1.0]hexan-6-yl)ethyl)acrylamide]
Second: O=C(NCC[C@@H]1[C@H]2CN(S(=O)(=O)C3CCOCC3)C[C@@H]12)c1cc2ccncc2o1 [Example 73, N-(2-((1R,5S,6s)-3-((tetrahydro-2H-pyran-4-yl)sulfonyl)-3-azabicyclo[3.1.0]hexan-6-yl)ethyl)furo[2,3-c]pyridine-2-carboxamide]
The IC50 of the first is lower: 0.01 to 0.49 µM for the first, 1 to 29 µM for the second. The first is the more potent here.

Compared with `CC(C)(C)OC(=O)N1C[C@@H]2[C@@H](CCNC(=O)c3cc4ccncc4s3)[C@@H]2C1` [Example 3], `CC(C)(C)OC(=O)N1C[C@@H]2[C@@H](CNC(=O)c3cc4ccncc4s3)[C@@H]2C1` [Example 236, (1R,5S,6s)-tert-butyl 6-((thieno[2,3-c]pyridine-2-carboxamido)methyl)-3-azabicyclo[3.1.0]hexane-3-carboxylate] is higher in IC50: 0.01 to 0.49 µM for the first, over 30 µM for the second.

`CC1(OC(=O)N2C[C@@H]3[C@@H](CCNC(=O)c4ccc5nccn5c4)[C@@H]3C2)COC1` [Example 38, (1R,5S,6s)-3-methyloxetan-3-yl 6-(2-(imidazo[1,2-a]pyridine-6-carboxamido)ethyl)-3-azabicyclo[3.1.0]hexane-3-carboxylate] and `CC(C)(C)OC(=O)N1C[C@@H]2[C@@H](CCNC(=O)c3ccc4nccn4c3)[C@@H]2C1` [Example 7, (1R,5S,6s)-tert-butyl 6-(2-(imidazo[1,2-a]pyridine-6-carboxamido)ethyl)-3-azabicyclo[3.1.0]hexane-3-carboxylate] fall in the same range of IC50: 0.01 to 0.49 µM for the first, 0.01 to 0.49 µM for the second.

First: CC(C)(C)OC(=O)N1C[C@@H]2[C@@H](CCNC(=O)c3cc(-c4cccnc4)on3)[C@@H]2C1 [Example 12, (1R,5S,6s)-tert-butyl 6-(2-(5-(pyridin-3-yl)isoxazole-3-carboxamido)ethyl)-3-azabicyclo[3.1.0]hexane-3-carboxylate]
Second: CC1(OC(=O)N2C[C@@H]3[C@@H](CCNC(=O)c4cc5cc(N)ncc5s4)[C@@H]3C2)COC1 [Example 74, (1R,5S,6s)-3-methyloxetan-3-yl 6-(2-(5-aminothieno[2,3-c]pyridine-2-carboxamido)ethyl)-3-azabicyclo[3.1.0]hexane-3-carboxylate]
The IC50 of the first is lower: under 0.01 µM for the first, 0.01 to 0.49 µM for the second. The first is the more potent here.

`O=C(NCC[C@@H]1[C@H]2CN(C(=O)c3ccccc3)C[C@@H]12)c1ccc2nccn2c1` [Example 63, N-(2-((1R,5S,6s)-3-benzoyl-3-azabicyclo[3.1.0]hexan-6-yl)ethyl)imidazo[1,2-a]pyridine-6-carboxamide] and `Cc1nc(C)c(C(=O)N2C[C@@H]3[C@@H](CCNC(=O)c4ccc5nccn5c4)[C@@H]3C2)o1` [Example 103, N-(2-((1R,5S,6s)-3-(2,4-dimethyloxazole-5-carbonyl)-3-azabicyclo[3.1.0]hexan-6-yl)ethyl)imidazo[1,2-a]pyridine-6-carboxamide] fall in the same range of IC50: 0.01 to 0.49 µM for the first, 0.01 to 0.49 µM for the second.

`N#CN=C(NCC[C@@H]1[C@H]2CN(C(=O)c3ccccc3)C[C@@H]12)Nc1ccncc1` [Example 228, (E)-1-(2-((1R,5S,6s)-3-benzoyl-3-azabicyclo[3.1.0]hexan-6-yl)ethyl)-2-cyano-3-(pyridin-4-yl)guanidine] and `O=C(/C=C/c1cccnc1)NCC[C@@H]1[C@H]2CN(c3ccc4ccccc4c3)C[C@@H]12` [Example 127, (E)-N-(2-((1R,5S,6s)-3-(naphthalen-2-yl)-3-azabicyclo[3.1.0]hexan-6-yl)ethyl)-3-(pyridin-3-yl)acrylamide] fall in the same range of IC50: 0.01 to 0.49 µM for the first, 0.01 to 0.49 µM for the second.

`O=C(NCC[C@@H]1[C@H]2CN(C(=O)OC3CCOCC3)C[C@@H]12)c1ccc2nccn2c1` [Example 67, (1R,5S,6s)-tetrahydro-2H-pyran-4-yl 6-(2-(imidazo[1,2-a]pyridine-6-carboxamido)ethyl)-3-azabicyclo[3.1.0]hexane-3-carboxylate] and `O=C(NCC[C@@H]1[C@H]2CN(c3ncccn3)C[C@@H]12)c1ccc2nccn2c1` [Example 118, N-(2-((1R,5S,6s)-3-(pyrimidin-2-yl)-3-azabicyclo[3.1.0]hexan-6-yl)ethyl)imidazo[1,2-a]pyridine-6-carboxamide] fall in the same range of IC50: 0.01 to 0.49 µM for the first, 0.01 to 0.49 µM for the second.

For `CC(C)(C)OC(=O)N1C[C@H]2CCC(CNC(=O)N3Cc4ccncc4C3)C[C@H]2C1` (stereo in doubt) [Example 270, tert-butyl 5-((2,3-dihydro-1H-pyrrolo[3,4-c]pyridine-2-carboxamido)methyl)hexahydro-1H-isoindole-2(3H)-carboxylate], the IC50 was 0.01 to 0.49 µM.

Same assay, conditions: [HDB]; read-out: NAMPT IC50 (μM) [HDB]

`NC(=O)COc1ncc(F)c(N2C[C@@H]3[C@@H](CCNC(=O)/C=C/c4cccnc4)[C@@H]3C2)n1` [Example 285, (E)-N-(2-((1R,5S,6s)-3-(2-(2-amino-2-oxoethoxy)-5-fluoropyrimidin-4-yl)-3-azabicyclo[3.1.0]hexan-6-yl)ethyl)-3-(pyridin-3-yl)acrylamide] and `O=C(/C=C/c1cccnc1)NCC[C@@H]1[C@H]2CN(c3nc(Cl)ncc3F)C[C@@H]12` [Example 172, (E)-N-(2-((1R,5S,6s)-3-(2-chloro-5-fluoropyrimidin-4-yl)-3-azabicyclo[3.1.0]hexan-6-yl)ethyl)-3-(pyridin-3-yl)acrylamide] cannot be ordered by IC50: under 0.01 µM for the first, under 0.01 µM for the second.

`Cc1cc(N2C[C@@H]3[C@@H](CCNC(=O)/C=C/c4cccnc4)[C@@H]3C2)cc(C)n1` [Example 307, (E)-N-(2-((1R,5S,6s)-3-(2,6-dimethylpyridin-4-yl)-3-azabicyclo[3.1.0]hexan-6-yl)ethyl)-3-(pyridin-3-yl)acrylamide] and `O=C(/C=C/c1cccnc1)NCC[C@@H]1[C@H]2CN(c3cccc(Cl)c3)C[C@@H]12` [Example 145, (E)-N-(2-((1R,5S,6s)-3-(3-chlorophenyl)-3-azabicyclo[3.1.0]hexan-6-yl)ethyl)-3-(pyridin-3-yl)acrylamide] fall in the same range of IC50: 0.01 to 0.49 µM for the first, 0.01 to 0.49 µM for the second.

`O=C(/C=C/c1cccnc1)NCC[C@@H]1[C@H]2CN(c3nc(N4CCOCC4)ncc3F)C[C@@H]12` [Example 277, (E)-N-(2-((1R,5S,6s)-3-(5-fluoro-2-morpholinopyrimidin-4-yl)-3-azabicyclo[3.1.0]hexan-6-yl)ethyl)-3-(pyridin-3-yl)acrylamide] and `O=C(/C=C/c1cccnc1)NCC[C@@H]1[C@H]2CN(c3nc(-c4ccccc4)ncc3F)C[C@@H]12` [Example 287, (E)-N-(2-((1R,5S,6s)-3-(5-fluoro-2-phenylpyrimidin-4-yl)-3-azabicyclo[3.1.0]hexan-6-yl)ethyl)-3-(pyridin-3-yl)acrylamide] cannot be ordered by IC50: under 0.01 µM for the first, under 0.01 µM for the second.

First: O=C(/C=C/c1cccnc1)NCC[C@@H]1[C@H]2CN(c3cc(Cl)ccc3F)C[C@@H]12 [Example 150, (E)-N-(2-((1R,5S,6s)-3-(5-chloro-2-flurophenyl)-3-azabicyclo[3.1.0]hexan-6-yl)ethyl)-3-(pyridin-3-yl)acrylamide]
Second: O=C(/C=C/c1cccnc1)NCC[C@@H]1[C@H]2CN(Cc3cccc(Cl)c3)C[C@@H]12 [Example 301, (E)-N-(2-((1R,5S,6s)-3-(3-chlorobenzyl)-3-azabicyclo[3.1.0]hexan-6-yl)ethyl)-3-(pyridin-3-yl)acrylamide]
The IC50 of the first is higher: 0.01 to 0.49 µM for the first, under 0.01 µM for the second.

First: CC(C)(C)OC(=O)N1C[C@@H]2[C@@H](CCNC(=O)c3cc4cc(N)ncc4s3)[C@@H]2C1 [Example 13, (1R,5S,6s)-tert-butyl 6-(2-(5-aminothieno[2,3-c]pyridine-2-carboxamido)ethyl)-3-azabicyclo[3.1.0]hexane-3-carboxylate]
Second: O=C(NCC[C@@H]1[C@H]2CN(c3ccccc3)C[C@@H]12)c1cc(-c2cccnc2)on1 [Example 134, N-(2-((1R,5S,6s)-3-phenyl-3-azabicyclo[3.1.0]hexan-6-yl)ethyl)-5-(pyridin-3-yl)isoxazole-3-carboxamide]
The IC50 of the first is higher: 0.01 to 0.49 µM for the first, under 0.01 µM for the second. The second is the more potent here.

`O=C(/C=C/c1cccnc1)NCC[C@@H]1[C@H]2CN(c3ccccc3C(F)(F)F)C[C@@H]12` [Example 140, (E)-3-(pyridin-3-yl)-N-(2-((1R,5S,6S)-3-(2-(trifluoromethyl)phenyl)-3-azabicyclo[3.1.0]hexan-6-yl)ethyl)acrylamide] and `O=C(/C=C/c1cccnc1)NCC[C@H]1[C@H]2CN(c3ccccc3)C[C@@H]12` [Example 281, (E)-N-(2-((1R,5S,6r)-3-phenyl-3-azabicyclo[3.1.0]hexan-6-yl)ethyl)-3-(pyridin-3-yl)acrylamide] fall in the same range of IC50: 0.01 to 0.49 µM for the first, 0.01 to 0.49 µM for the second.

Work on `CC(c1ccncc1)N1C[C@@H]2[C@@H](CCNC(=O)/C=C/c3cccnc3)[C@@H]2C1` (stereo partly drawn) [Example 319, (E)-3-(pyridin-3-yl)-N-(2-((1R,5S,6s)-3-(1-(pyridin-4-yl)ethyl)-3-azabicyclo[3.1.0]hexan-6-yl)ethyl)acrylamide] yielded an IC50 of under 0.01 µM.

From US12421210B2, “Fused bicyclic heterocycles as therapeutic agents” (NEW YORK UNIVERSITY, priority 2018, dated 2025)
